Source: patent EP0429304A2, “Pyridone-carboxylic acid derivatives and their use as veterinary medicines” (SHIONOGI SEIYAKU KABUSHIKI KAISHA trading under the name of …, priority 1989, dated 1991)
Read-outs that look alike come from different tables or passages of the source.

Tests used:
[1] = system: TS-resistant strain of MG; assay type: in vivo, chicken; conditions: 9-days chicken; for Infectious index Left air sack + / Infectious index Left air sack ++ / Infectious index Left air sack +++ / Infectious index Left air sack - / Infectious index Right air sack + / Infectious index Right air sack ++ / Infectious index Right air sack +++ / Infectious index Right air sack -: count of fowl; for Infectious index Left air sack + / Infectious index Left air sack ++ / Infectious index Left air sack +++ / Infectious index Left air sack - / Infectious index Right air sack + / Infectious index Right air sack ++ / Infectious index Right air sack +++ / Infectious index Right air sack - / Number of fowl having air sack lesions: 1.7 x 10³ CFU/fowl; for Number of infected fowl/Number of fowl tested: 3.5 x 10³ CFU/fowl
[2] = system: Mycoplasma gallisepticum (MG) S6; test: In vitro sensitivity test (liquid dilution method); assay type: cell-based; conditions: 37°C, 7 days
[3] = system: Mycoplasma synoviae (MS) 1853; test: In vitro sensitivity test (liquid dilution method); assay type: cell-based; conditions: 37°C, 7 days
In short: (§1)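 Bacteria were of animal origin. MS strains were grown by liquid dilution in Frey medium with 12 % pig-serum and 0.01 % βNAD at 37°C for 7 days. S.au was tested by agar dilution on Mueller Hinton agar, 37°C for 20 to 24 hours. P.pis was grown on 1.5 % NaCl heart infusion agar at 25°C for 40 to 48 hours.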

[4] = system: Mycoplasma gallisepticum (MG) T-7-T, TS-resistant strain isolated from the field; test: In vitro sensitivity test (liquid dilution method); assay type: cell-based; conditions: 37°C, 7 days
[5] = system: Mycoplasma hyopneumoniae (Mh) ST-11; test: In vitro sensitivity test (liquid dilution method); assay type: cell-based; conditions: 37°C, 7 days
[6] = system: Mycoplasma synoviae (MS) F10-2as; test: In vitro sensitivity test (liquid dilution method); assay type: cell-based; conditions: 37°C, 7 days
In short: as §1

[7] = system: H.pp (otherwise called Actinobacillus pleuropneumoniae) strain M-1; test: Experimental H.pp infection to pig, through injection; assay type: in vivo; conditions: injection to thigh muscle one time, Dose 5 mg/kg; dissection 6 days after inoculation
Procedure: In these experiments, the compound (I) was applied to the designated animals by (1) oral administration, (2) incorporation into baits and (3) intramuscular injection, the details of which are explained below.
(3) Preparation of the MG infected fowls was performed in the same manner as in (1) above. Infection of H.pp (otherwise called Actinobacillus pleuropneumoniae) to cause pleuropneumonia in pig was performed by inoculating 5 ml of a fresh cultured strain (i.e. M-1) of H.pp to each nasopharyngeal of some 45 days pigs, each weighing 4 to 9 kg (4 to 5 pigs/group), followed by injection of the test compounds to each thigh muscle at a designated volume one time. Pigs were dissected 6 days after the inoculation. The evaluation of the antimicrobial activity was made by observation of the pneumonia symptomes in air sacs, number of dead body and degree of nodosity in air sacks on dissection.

[8] = system: Escherichia coli (E.coli) E-17, chicken-origin strain isolated from the field; test: In vitro sensitivity test (agar dilution method); assay type: cell-based; conditions: 37°C, 20 to 24 hours
In short: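 For the fish-origin P.pis strain this meant heart infusion agar supplemented with 1.5 % NaCl at 25°C for 40 to 48 hours. S.au plates used Mueller Hinton agar at 37°C for 20 to 24 hours. MS broths used Frey medium with 12 % pig-serum and 0.01 % βNAD at 37°C for 7 days.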

[9] = system: Bordetella bronchiseptica (B.br) ABU-1; test: In vitro sensitivity test (agar dilution method); assay type: cell-based; conditions: 37°C, 20 to 24 hours
[10] = system: Hemophilus pleuropneumonia (H.pp) M-1; test: In vitro sensitivity test (agar dilution method); assay type: cell-based; conditions: 37°C, 20 hours, 10 % CO₂
[11] = system: Escherichia coli (E.coli) JC-2; test: In vitro sensitivity test (agar dilution method); assay type: cell-based; conditions: 37°C, 20 to 24 hours
[12] = system: Streptococcus sp (Str.sp) SNO6119; test: In vitro sensitivity test; assay type: cell-based; conditions: 25°C, 40 to 48 hours
[13] = system: Pasteurella piscicida (P.pis) No. 2; test: In vitro sensitivity test; assay type: cell-based; conditions: 25°C, 40 to 48 hours
In short: as §1

TS-resistant MG = test: Experimental MG infection to chicken, through bait; assay type: in vivo; conditions: 9-days chicken; for Number of infected fowl/Number of fowl tested: 6.6 x 10³ CFU/fowl, dissection 6th day after inoculation; for Number of fowl having air sack lesions / Infectious index Left air sack + / Infectious index Left air sack ++ / Infectious index Left air sack +++ / Infectious index Left air sack - / Infectious index Right air sack + / Infectious index Right air sack ++ / Infectious index Right air sack +++ / Infectious index Right air sack -: 1.8 x 10³ CFU/fowl; for Infectious index Left air sack + / Infectious index Left air sack ++ / Infectious index Left air sack +++ / Infectious index Left air sack - / Infectious index Right air sack + / Infectious index Right air sack ++ / Infectious index Right air sack +++ / Infectious index Right air sack -: count of fowl

Cl.Nc1c(F)c(N2C[C@@H]3CC[C@@H](N)[C@@H]3C2)c(F)c2c1c(=O)c(C(=O)O)cn2C1CC1 (relative stereo) [I-16]
Infectious index Left air sack + ([1]; oral 6.25 mg/kg): 0 | Infectious index Left air sack ++ ([1]; oral 6.25 mg/kg): 0 | Infectious index Left air sack +++ ([1]; oral 6.25 mg/kg): 0 | Infectious index Left air sack - ([1]; oral 6.25 mg/kg): 4 | Infectious index Right air sack + ([1]; oral 6.25 mg/kg): 0 | Infectious index Right air sack ++ ([1]; oral 6.25 mg/kg): 3 | Infectious index Right air sack +++ ([1]; oral 6.25 mg/kg): 0 | Infectious index Right air sack - ([1]; oral 6.25 mg/kg): 1 | Infectious index Left air sack + ([1]; oral 12.5 mg/kg): 0 | Infectious index Left air sack ++ ([1]; oral 12.5 mg/kg): 0 | Infectious index Left air sack +++ ([1]; oral 12.5 mg/kg): 0 | Infectious index Left air sack - ([1]; oral 12.5 mg/kg): 5 | Infectious index Right air sack + ([1]; oral 12.5 mg/kg): 0 | Infectious index Right air sack ++ ([1]; oral 12.5 mg/kg): 0 | Infectious index Right air sack +++ ([1]; oral 12.5 mg/kg): 0 | Infectious index Right air sack - ([1]; oral 12.5 mg/kg): 5 | Infectious index Left air sack + ([1]; oral 25.0 mg/kg): 0 | Infectious index Left air sack ++ ([1]; oral 25.0 mg/kg): 0 | Infectious index Left air sack +++ ([1]; oral 25.0 mg/kg): 0 | Infectious index Left air sack - ([1]; oral 25.0 mg/kg): 5 | Infectious index Right air sack + ([1]; oral 25.0 mg/kg): 0 | Infectious index Right air sack ++ ([1]; oral 25.0 mg/kg): 0 | Infectious index Right air sack +++ ([1]; oral 25.0 mg/kg): 0 | Infectious index Right air sack - ([1]; oral 25.0 mg/kg): 5 | Number of infected fowl/Number of fowl tested ([1]; oral 1.56 mg/kg): 5/5 | Number of infected fowl/Number of fowl tested ([1]; oral 3.13 mg/kg): 2/5 | Number of fowl having air sack lesions ([1]; oral 6.25 mg/kg): 3 | Number of infected fowl/Number of fowl tested ([1]; oral 6.25 mg/kg): 2/5 | Number of fowl having air sack lesions ([1]; oral 12.5 mg/kg): 0 | Number of fowl having air sack lesions ([1]; oral 25.0 mg/kg): 0 | In vitro Sensitivity Test MG S6 [2]: <0.0313 µg/mL | In vitro Sensitivity Test MS 1853 [3]: 0.39 µg/mL | In vitro Sensitivity Test MG T-7-T [4]: 0.00313 µg/mL | In vitro Sensitivity Test Mh ST-11 [5]: <0.025 µg/mL | In vitro Sensitivity Test MS F10-2as [6]: 0.2 µg/ml | Number of pig having nodi/Number of pig tested [7]: 0/4 | In vitro Sensitivity Test E.coli E-17 [8]: 0.025 µg/ml | In vitro Sensitivity Test B.br ABU-1 [9]: 1.56 µg/mL | In vitro Sensitivity Test H.pp M-1 [10]: 0.2 µg/mL | In vitro Sensitivity Test E.coli JC-2 [11]: 0.05 µg/mL | In vitro Sensitivity Test Str.sp SNO6119 [12]: 0.39 µg/mL | In vitro Sensitivity Test P.pis No. 2 [13]: 0.39 µg/mL | Number of infected fowl/Number of fowl tested (TS-resistant MG; bait 3.13 ppm/Day): 2/7 | Number of fowl having air sack lesions (TS-resistant MG; bait 15.6 ppm/Day): 3 | Number of fowl having air sack lesions (TS-resistant MG; bait 31.3 ppm/Day): 3 | Number of fowl having air sack lesions (TS-resistant MG; bait 62.5 ppm/Day): 0 | Number of infected fowl/Number of fowl tested (TS-resistant MG; bait 62.5 ppm/Day): 0/7 | Number of infected fowl/Number of fowl tested (TS-resistant MG; bait 125 ppm/Day): 0/7 | Infectious index Left air sack + (TS-resistant MG; bait 15.6 ppm/Day): 0 | Infectious index Left air sack ++ (TS-resistant MG; bait 15.6 ppm/Day): 0 | Infectious index Left air sack +++ (TS-resistant MG; bait 15.6 ppm/Day): 0 | Infectious index Left air sack - (TS-resistant MG; bait 15.6 ppm/Day): 5 | Infectious index Right air sack + (TS-resistant MG; bait 15.6 ppm/Day): 1 | Infectious index Right air sack ++ (TS-resistant MG; bait 15.6 ppm/Day): 2 | Infectious index Right air sack +++ (TS-resistant MG; bait 15.6 ppm/Day): 0 | Infectious index Right air sack - (TS-resistant MG; bait 15.6 ppm/Day): 2 | Infectious index Left air sack + (TS-resistant MG; bait 31.3 ppm/Day): 0 | Infectious index Left air sack ++ (TS-resistant MG; bait 31.3 ppm/Day): 0 | Infectious index Left air sack +++ (TS-resistant MG; bait 31.3 ppm/Day): 0 | Infectious index Left air sack - (TS-resistant MG; bait 31.3 ppm/Day): 5 | Infectious index Right air sack + (TS-resistant MG; bait 31.3 ppm/Day): 1 | Infectious index Right air sack ++ (TS-resistant MG; bait 31.3 ppm/Day): 2 | Infectious index Right air sack +++ (TS-resistant MG; bait 31.3 ppm/Day): 0 | Infectious index Right air sack - (TS-resistant MG; bait 31.3 ppm/Day): 2 | Infectious index Left air sack + (TS-resistant MG; bait 62.5 ppm/Day): 0 | Infectious index Left air sack ++ (TS-resistant MG; bait 62.5 ppm/Day): 0 | Infectious index Left air sack +++ (TS-resistant MG; bait 62.5 ppm/Day): 0 | Infectious index Left air sack - (TS-resistant MG; bait 62.5 ppm/Day): 5 | Infectious index Right air sack + (TS-resistant MG; bait 62.5 ppm/Day): 0 | Infectious index Right air sack ++ (TS-resistant MG; bait 62.5 ppm/Day): 0 | Infectious index Right air sack +++ (TS-resistant MG; bait 62.5 ppm/Day): 0 | Infectious index Right air sack - (TS-resistant MG; bait 62.5 ppm/Day): 5
